For data set [1] the following is noted: mouse liver microsomes; amides 4; cited from earlier work.
The subject of the next data set is MDCK-MDR1 monolayer. As to conditions: amides 4, cited from earlier work; for MDCK-MDR1 AB Papp: A to B direction; for MDCK-MDR1 BA Papp: B to A direction.
For data set [2], the target named is T1, Notum(81–451 Cys330Ser) (Homo sapiens, UniProt Q6P988, C330S).
T1 sequence (Q6P988 81-451 C330S): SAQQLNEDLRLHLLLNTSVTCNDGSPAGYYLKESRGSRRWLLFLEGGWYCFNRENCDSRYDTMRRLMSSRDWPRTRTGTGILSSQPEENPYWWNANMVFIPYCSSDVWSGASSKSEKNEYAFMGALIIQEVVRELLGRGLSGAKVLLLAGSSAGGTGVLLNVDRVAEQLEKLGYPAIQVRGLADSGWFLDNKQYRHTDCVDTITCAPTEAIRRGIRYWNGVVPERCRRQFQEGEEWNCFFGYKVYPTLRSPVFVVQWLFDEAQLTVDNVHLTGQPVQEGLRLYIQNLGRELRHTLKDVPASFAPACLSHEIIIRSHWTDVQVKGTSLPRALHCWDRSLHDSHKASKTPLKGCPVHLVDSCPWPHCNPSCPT
As to conditions: thieno[3,2-d]pyrimidine amides 4; OPTS assay; geometric mean ± s.d.; cited from earlier work.

Data set [3] can be described thus: Hydrolytic stability in citrate buffer. In kind it is physicochemical. Particulars: citrate buffer 0.1 M, pH 4, up to 24 h, UPLC-MS.
Data set [4] can be described thus: Metabolic stability in mouse liver microsomes (MLM). In kind it is in vitro ADME.
Data set [5] addresses T1, Notum(81–451 Cys330Ser). The data set can be described thus: Notum biochemical OPTS assay (carboxylesterase activity). As to conditions: OPTS substrate, 1 h incubation; geometric mean ± s.d.
The next data set deals with P-gp (MDR1). The data set can be described thus: MDCK-MDR1 cell permeability and efflux. Format: in vitro ADME. Particulars: dog.
The target in the next data set is T2, Notum (Homo sapiens, UniProt Q6P988, C330S).
T2 sequence (Q6P988 81-451 C330S): T1 sequence (Q6P988 81-451 C330S)
The data set can be described thus: Notum enzymatic stability (biochemical assay without OPTS substrate). As to conditions: up to 72 h.

A short description of a further data set: Aqueous solubility. In kind it is physicochemical. Particulars: read-out: Aq. solubility.
The next data set in a line: LogD7.4. Format: physicochemical. As to conditions: pH 7.4.
Data set [6] in a line: Mouse pharmacokinetics, single oral dose. In kind it is in vivo. Particulars: p.o. 10 mg/kg. Here is the method: At this point, mouse pharmacokinetic data for 5l was generated in vivo to determine the extent of plasma exposure and to check the correlation of the in vitro ADME data with in vivo outcomes.
Animal Testing Declaration: In vivo mouse pharmacokinetic data was generated at GVK Biosciences, Hyderabad, India. GVK Biosciences is accredited by AAALAC and OLAW for the ethical treatment of animals. All the animal experiments are conducted in accordance with IAEC approved protocols. See: https://www.gvkbio.com/biology-services/in-vivo-pharmacology/

Another data set is described as follows: Mouse plasma stability. Format: in vitro ADME. An excerpt:
However, the ER for 24 was perceived to be within acceptable limits based on established precedent.[22] [table]

A further data set addresses T3, CYP2B6 (Homo sapiens, UniProt P20813).
T3 sequence (P20813 1-491): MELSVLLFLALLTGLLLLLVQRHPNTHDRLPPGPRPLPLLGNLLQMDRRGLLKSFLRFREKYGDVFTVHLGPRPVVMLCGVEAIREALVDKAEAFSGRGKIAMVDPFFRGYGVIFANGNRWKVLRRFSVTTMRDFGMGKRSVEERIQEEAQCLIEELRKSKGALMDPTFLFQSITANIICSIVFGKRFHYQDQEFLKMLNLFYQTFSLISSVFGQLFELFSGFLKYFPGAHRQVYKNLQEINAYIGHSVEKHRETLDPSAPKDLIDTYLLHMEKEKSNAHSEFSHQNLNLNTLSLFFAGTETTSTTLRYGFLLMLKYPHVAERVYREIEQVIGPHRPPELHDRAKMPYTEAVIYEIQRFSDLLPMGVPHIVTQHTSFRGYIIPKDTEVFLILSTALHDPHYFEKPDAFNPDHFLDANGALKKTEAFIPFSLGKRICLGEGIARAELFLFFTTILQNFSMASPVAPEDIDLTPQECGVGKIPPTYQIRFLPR
Nature of the data set: CYP2B6 inhibition. Format: in vitro ADME.

In another data set the target is CYP3A4 (Homo sapiens, UniProt P08684). The data set can be described thus: CYP3A4 inhibition. Format: in vitro ADME.
The next data set concerns the target CYP2D6 (Homo sapiens, UniProt P10635). The data set can be described thus: CYP2D6 inhibition. In kind it is in vitro ADME.
The target in another data set is CYP2C9 (Homo sapiens, UniProt P11712). The data set can be described thus: CYP2C9 inhibition. In kind it is in vitro ADME.
The next data set deals with T4, CYP1A2 (Homo sapiens, UniProt P05177).
T4 sequence (P05177 1-516): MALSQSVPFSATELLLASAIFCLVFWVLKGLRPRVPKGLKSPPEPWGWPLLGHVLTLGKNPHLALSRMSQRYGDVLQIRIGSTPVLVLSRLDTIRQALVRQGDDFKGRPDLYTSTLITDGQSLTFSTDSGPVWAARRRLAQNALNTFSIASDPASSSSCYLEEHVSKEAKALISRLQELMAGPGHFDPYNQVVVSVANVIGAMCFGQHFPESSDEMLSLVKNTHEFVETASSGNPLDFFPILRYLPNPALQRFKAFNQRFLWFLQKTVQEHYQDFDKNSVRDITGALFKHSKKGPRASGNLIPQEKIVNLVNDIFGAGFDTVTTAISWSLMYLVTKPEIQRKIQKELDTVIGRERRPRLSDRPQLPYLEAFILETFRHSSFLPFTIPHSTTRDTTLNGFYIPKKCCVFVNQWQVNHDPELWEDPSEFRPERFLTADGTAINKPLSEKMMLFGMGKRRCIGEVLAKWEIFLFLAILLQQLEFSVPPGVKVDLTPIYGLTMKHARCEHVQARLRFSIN
Nature of the data set: CYP1A2 inhibition. In kind it is in vitro ADME.

Setting [7] is: MDCK-MDR1, A to B direction, read-out: MDCK-MDR1 AB Papp.
[8] abbreviates: MDCK-MDR1, B to A direction, read-out: MDCK-MDR1 BA Papp.
The mark [9] stands for this setting: C57BL/6, mouse, po, plasma, male C57BL6 mice.
Setting [10] is: C57BL/6, mouse, po, brain, male C57BL6 mice.

Structures are written as SMILES. Values joined by “and” are separate entries in the source; they are usually repeats but may differ in a detail not shown here. Equal entries are not always repeated. Where two headings read alike, the source gives them in different places. Some results are limits rather than exact numbers.

Chain of CYP2D6 (P10635 whole entry): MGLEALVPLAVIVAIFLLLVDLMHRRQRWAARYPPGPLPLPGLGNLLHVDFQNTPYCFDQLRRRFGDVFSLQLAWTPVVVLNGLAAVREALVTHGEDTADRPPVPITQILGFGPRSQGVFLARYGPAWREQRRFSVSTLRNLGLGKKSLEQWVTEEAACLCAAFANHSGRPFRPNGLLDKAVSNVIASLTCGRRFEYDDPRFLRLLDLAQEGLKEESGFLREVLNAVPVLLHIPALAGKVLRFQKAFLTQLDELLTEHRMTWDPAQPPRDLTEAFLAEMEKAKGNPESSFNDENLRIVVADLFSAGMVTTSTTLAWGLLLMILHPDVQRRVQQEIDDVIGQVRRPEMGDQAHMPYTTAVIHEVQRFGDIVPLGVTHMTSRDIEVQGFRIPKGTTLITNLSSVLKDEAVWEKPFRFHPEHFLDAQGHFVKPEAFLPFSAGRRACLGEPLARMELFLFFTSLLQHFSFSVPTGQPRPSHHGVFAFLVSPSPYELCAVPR
Chain of CYP2C9 (P11712 whole entry): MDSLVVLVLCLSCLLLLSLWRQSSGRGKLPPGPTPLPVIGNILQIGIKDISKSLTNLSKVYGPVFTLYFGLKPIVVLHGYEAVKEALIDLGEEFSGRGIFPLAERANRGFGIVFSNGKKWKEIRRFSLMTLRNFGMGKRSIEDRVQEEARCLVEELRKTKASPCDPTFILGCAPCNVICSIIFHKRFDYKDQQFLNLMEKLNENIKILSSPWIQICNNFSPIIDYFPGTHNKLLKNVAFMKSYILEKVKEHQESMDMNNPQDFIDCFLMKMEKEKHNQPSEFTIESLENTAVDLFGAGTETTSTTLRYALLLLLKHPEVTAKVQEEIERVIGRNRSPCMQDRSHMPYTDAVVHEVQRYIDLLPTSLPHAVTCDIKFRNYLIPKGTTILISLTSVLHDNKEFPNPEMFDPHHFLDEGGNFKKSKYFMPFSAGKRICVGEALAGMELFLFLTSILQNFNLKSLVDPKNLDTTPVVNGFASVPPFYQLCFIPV
Chain of CYP3A4 (P08684 whole entry): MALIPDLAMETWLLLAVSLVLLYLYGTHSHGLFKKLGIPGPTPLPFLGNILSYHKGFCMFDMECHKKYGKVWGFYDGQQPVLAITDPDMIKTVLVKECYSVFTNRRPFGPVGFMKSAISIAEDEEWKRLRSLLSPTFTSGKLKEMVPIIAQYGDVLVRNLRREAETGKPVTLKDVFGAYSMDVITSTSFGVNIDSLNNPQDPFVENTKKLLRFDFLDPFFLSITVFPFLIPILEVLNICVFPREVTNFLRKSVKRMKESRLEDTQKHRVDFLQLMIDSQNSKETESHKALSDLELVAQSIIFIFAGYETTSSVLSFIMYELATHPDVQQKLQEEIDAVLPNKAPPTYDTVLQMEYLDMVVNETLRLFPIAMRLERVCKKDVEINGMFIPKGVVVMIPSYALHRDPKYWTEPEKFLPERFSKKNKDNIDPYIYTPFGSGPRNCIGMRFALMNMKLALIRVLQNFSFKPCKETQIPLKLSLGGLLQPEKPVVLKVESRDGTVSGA

For `O=C(CSc1ncnc2c(C3CC3)c(Cl)sc12)N1CCOCC1` [Compound 4c], the “MLM Cli” value in data set [1] is over 500 µL/min/mg. In the data set on MDCK-MDR1 monolayer, the “MDCK-MDR1 AB Papp” value was 40 ×10⁻⁶ cm/s and the “MDCK-MDR1 BA Papp” value is 38 ×10⁻⁶ cm/s.

With `O=C1CN(C(=O)CSc2ncnc3c(C4CC4)c(Cl)sc23)CCN1` [Compound 4d], in the data set on MDCK-MDR1 monolayer, the “MDCK-MDR1 AB Papp” value is 7.9 ×10⁻⁶ cm/s and the “MDCK-MDR1 BA Papp” value is 65 ×10⁻⁶ cm/s. The IC50 at Notum(81–451 Cys330Ser) [2] is under 0.01 µM.

In the case of `Cc1sc2ncnc(SCC(=O)N3CCn4cnnc4C3)c2c1Cl` [Compound 5f], the Hydrolytic stability result in data set [3] is on record as “only parent was detected”. For the same compound, the “MLM Cli” value in data set [4] (mouse liver microsomes) stood at 13 µL/min/mg. The IC50 against Notum(81–451 Cys330Ser) [5] amounted to 0.0032 ± 0.0001 µM. The Papp in the data set on P-gp (MDR1) (setting [7]) came to 0.6 ×10⁻⁶ cm/s; with P-gp (MDR1) (setting [8]) it was 56 ×10⁻⁶ cm/s. Also, the efflux ratio with P-gp (MDR1) (MDCK-MDR1, read-out: MDCK-MDR1 efflux ratio (ER)) is 93. Also, the Notum enzymatic stability entry at Notum is “only parent was detected”.

With `Cc1sc2ncnc(SCC(=O)N3CC(=O)N(C)C3)c2c1Cl` [Compound 5l], the Hydrolytic stability entry in data set [3] is “only parent was detected”. Moreover, in the data set “Aqueous solubility”, the solubility is 77 µg/mL and 215 µM. The compound also had a logD in “LogD7.4” of 1.8. The compound further displayed a half-maximal inhibitory concentration (IC50) on Notum(81–451 Cys330Ser) [5] of 0.0024 ± 0.0004 µM. The Papp in the data set on P-gp (MDR1) (setting [7]) is 36 ×10⁻⁶ cm/s; in the data set with P-gp (MDR1) (setting [8]) it was 42 ×10⁻⁶ cm/s. In addition, the Notum enzymatic stability result on Notum is listed as “only parent was detected”. In data set [6] (setting [9]), this compound displayed a Cmax of 120 ng/mL. For the same compound, the AUC(0-inf) in data set [6] (C57BL/6, mouse, po, plasma, male C57BL6 mice, read-out: AUC(0-inf)) was 70 ng·h/mL.

As for `Cc1c(C(F)(F)F)oc2ncnc(SCC(=O)N3CC(=O)N(C)C3)c12` [Compound 24, 3-Methyl-1-(2-((5-methyl-6-(trifluoromethyl)furo[2,3-d]pyrimidinyl-4-yl)thio)acetyl)imidazolin-4-one], in the data set “Mouse plasma stability” (after 120 min), the “Mouse plasma stability (in words)” value was “no degradation observed”. The share remaining at 2 h in “Mouse plasma stability” (mouse, plasma, 120 min) was found to be 110%. In addition, the “MLM Cli” value in data set [4] (Table 5) is recorded as 6.9 μL/min/mg protein. For the same compound, in data set [4] (mouse liver microsomes), the “MLM Cli” value was determined as 6.9 µL/min/mg and the “Metabolic stability in MLM (in words)” value was “high metabolic stability”. The solubility in “Aqueous solubility” is 45 µg/mL and 120 µM. The same compound had an IC50 against CYP2B6 of over 30 µM. Besides, the 50% inhibitory concentration (IC50) on CYP3A4 is over 30 µM. Also, the IC50 against CYP2D6 was over 30 µM. The 50% inhibitory concentration (IC50) on CYP2C9 was over 30 µM. The half-maximal inhibitory concentration (IC50) against CYP1A2 was over 30 µM. Further, in [6] (setting [10]), the concentration peaked (Cmax at 24 h) at 1210 ng/g and the Tmax was 30 min. For the same compound, in [6] (setting [9]), the AUC(0-inf) at 24 h is 5490 ng·h/mL, the AUC(0-t) at 24 h came to 5390 ng·h/mL, the peak level (Cmax at 24 h) was 3850 ng/mL and the Tmax was determined as 30 min. In addition, in data set [6] (brain, male C57BL6 mice), the “AUC(0-inf)” value is 1610 ng·h/g and the “AUC(0-t)” value worked out at 1550 ng·h/g. Moreover, in data set [6] (mouse, free drug), the “Cmax[brain] (free drug)” value is on record as “≈ 0.5 μM” and the “Cmax[plasma] (free drug)” value is listed as “≈ 2.2 μM”.

Source of the values: article PMC6961116, “Scaffold-hopping identifies furano[2,3-d]pyrimidine amides as potent Notum inhibitors” (Bioorganic & Medicinal Chemistry Letters, 2020).
